# Results published in patent US20260256716A1, “COMPOSITIONS AND METHODS OF USE THEREOF” (Board of Supervisors of Louisiana State University and …, priority 2023, published 2026).
# Entries after “also recorded” stand apart in the source; their conditions may differ.
# Tests used:
# ARPE-19 cells [1] = experiment: ATP luciferase assay in ARPE-19 cells; assay type: cell-based, human
# AMP kinase = AMP kinase activation in treated cells; assay type: cell-based; settings: low nM concentrations
# ARPE cells = experiment: Blue light induced mitochondrial fragmentation in ARPE cells (mitotracker green); assay type: cell-based, human; settings: 100 nM; 48 hours; hyperglycemic conditions; blue light 400 nm
# Protocol: ARPE cells grown under hyperglycemic conditions were plated and mock treated or treated with R-DOI or 2C-iBu at 100 nM. 48 hours post treatment, mitochondria in live cells were visualized by staining mitochondria with mitotracker green (green). Once stained, live ARPE cells were exposed to focused blue light at 400 nm and the ability of drugs to protect against blue light damage-induced mitochondrial fragmentation was assessed.
# [2] = test system: phosphorylated myosin light chain; experiment: Western blot of phosphorylated myosin light chain (MLC) in ARPE-19 cells under hyperglycemic conditions; assay type: cell-based, human
# Protocol: A Hallmark of Age-Associated Ocular and Neurodegenerative Disorders is Cytoskeletal Alteration and Induction of CONTRACTILE Stress Fiber Formation. Expression and activation via phosphorylation of Myosin Light Chain (MLC), is a biomarker of disease development. ARPE-19 cells and ARPE-19 cells specifying 5-HT2AR knockouts were plated in nutrient rich media (DMEM; 7% FCS) overnight. Cells were fixed, permeabilized, and stained phalloidin and α-phosphorylated-Myosin light chain. Cytoskeletal elements were then visualized by fluorescent microscopy to visualize actin fiber cytoskeletal structures (phalloidin, red) and contractile phosphorylated myosin light chain (green) via fluorescent microscopy. […] ARPE-19 cells were cultured under hyperglycemic conditions in nutrient rich media (DMEM High glucose; 7% FCS) overnight either in the absence or presence of 5-HT2A receptor agonists R-DOI and 2CiBu at 10 nm or 100 nM concentrations. The relative expression of the activated disease biomarker contractile phosphorylated myosin light chain was determined using specific antibodies and western blot analysis. 5-HT2A agonists. […] Therefore, 5-HT2A agonism at low concentrations have the potential to prevent and reverse deleterious cytoskeletal events that can be induced under hyperglycemic conditions, such as in diabetics.
# This can be consistent with 2C-iBu being able to regulate IOP and that 5HT2A agonists prevented edema formation and disruption of corneal architecture in a model of herpetic keratitis.
# A549 cells = experiment: Cell viability after cumene peroxide oxidative stress (Hoechst / propidium iodide); assay type: cell-based
# Protocol: A549 cells were treated with the indicated concentrations of R-DOI (panel A) or 2C-iBu (panel B) and subsequently exposed to cumene peroxide to oxidatively stress cells. Cell viability was visualized by staining with Hoescht (Blue) to mark total cells (live plus dead) and propidium iodide (red) to mark dead cells.
# ARPE-19 cells [3] = experiment: SA-β-Gal cellular senescence in ARPE-19 cells in nutrient rich media (DMEM); assay type: cell-based, human; settings: 10 nM in starvation media overnight, then DMEM 7% FCS 72 hours
# Protocol: ARPE-19 cells in nutrient rich media (DMEM; 7% FCS) were seeded overnight prior to being replaced with starvation media (DMEM; 0.5% FCS) containing 10 nM R-DOI or 10 nM M100,907. After overnight incubation in starvation media with drug, cells were swapped to DMEM 7% FCS media for 72-hours. After the 72-hour incubation, cells were fixed and stained for SA-β-Gal for 6-hours. Cells nuclei were then stained with DAPI for total-cell enumeration. SA-β-Gal positive cells, and total cells per frame, were quantified by microscopy.
# ARPE-19 cells [4] = experiment: ARPE-19 proliferation (DAPI cell number, fold change in growth); assay type: cell-based, human; settings: for cellular replication / proliferation: physiologically relevant serotonin levels, 72 h
# Protocol: Specific 5-HT2A Receptor Activation via Model Phenethylamines, like R-DOI. […] ARPE-19 cells were plated in nutrient rich media, DMEM, containing 7% dialyzed FCS and then starved in DMEM media containing 0.5% dialyzed FCS. Cells were then changed to 7% dialyzed FCS DMEM media containing physiolocial relevant levels of serotonin at varying concentrations and grown for 72-hours. Cell numbers were determined through DNA staining with DAPI and fold change in growth was determined from baseline readings at 24-hours. To assess if agonists of the 5HT2A receptor could enhance cell health and proliferation specifically through the 5-HT2A receptor, the model 5-HT2A receptor agonist, R-DOI was added at either 0.1 nM or 1 nM. […] Also, included is a summary of physiological serotonin and 5-HT2A receptor agonist/antagonist outcomes on cellular proliferation. This increase in proliferation promotes the formation of a compact RPE-monolayer which is important for maintaining a healthy blood-retinal barrier and can occur with low dose administration of 5-HT2A receptor agonists.
# ARPE-19 cells were plated in nutrient rich media, DMEM, containing 7% dialyzed FCS and then starved in DMEM media containing 0.5% dialyzed FCS. Cells were then changed to 7% dialyzed FCS DMEM media containing physiological relevant levels of serotonin at varying concentrations and grown for 72-hours. Cell numbers were determined through DNA staining with DAPI and fold change in growth was determined from baseline readings at 24-hours. To assess if serotonin enhances cell health and proliferation specifically through the 5-HT2A receptor, the 5-HT2A receptor antagonist, M100,907 at 10 nM was included during serotonin induction.
# ARPE-19 cells [5] = experiment: Hyperglycemia induced SA-β-Gal cellular senescence in ARPE-19 cells (HPLM); assay type: cell-based, human
# Protocol: Consistent with Retinal Deterioration by Glucose-Induced Cellular Senescence in the Diabetic Population, Hyperglycemic conditions induce increased disease promoting Cellular Senescence that is abrogated by low nM concentrations of the Representative 5-HT2A Receptor Agonist, R-DOI Returning to Base-line Homeostatic Levels. ARPE-19 cells in physiologically relevant media (HPLM; 7% FCS) were seeded overnight prior to being replaced with starvation media (HPLM 0.5% FCS) containing 10 nM R-DOI. After overnight incubation in starvation media, cells were swapped to media containing diabetic blood glucose levels (HPLM 7% FCS containing 5 mM, 10 mM, 20 mM, or 30 mM glucose) for 72-hours. After the 72-hour incubation, cells were fixed and stained for SA-β-Gal for 6-hours. Cells nuclei were then stained with DAPI for total-cell enumeration. SA-β-Gal positive cells, and total cells per frame, were quantified by microscopy. Pathological/diabetic glucose concentrations induce cellular senescence. 5-HT2A receptor agonism alleviates glucose-induced senescence at diabetic blood glucose levels. […]
# Effects of specific phenethylamine 5-HT2A receptor agonists on reduction of Hyperglycemia induced Disease Promoting Cellular Senescence: Inhibition of Cell Senescence and Disease Processes are Drug and Dose Dependent. […] SA-3-Gal positive cells, and total cells per frame, were quantified by microscopy. For each 5-HT2A agonist assessed, the % of senescent cells is expressed relative to the hyperglycemic control. […]
# Inhibition of Cell Senescence and Disease Processes are Drug and Dose Dependent. […] SA-β-Gal positive cells, and total cells per frame, were quantified by microscopy. For each 5-HT2A agonist assessed, the % of senescent cells is expressed relative to the hyperglycemic control. […]
# ARPE-19 cells [6] = experiment: FACS forward scatter cell size of ARPE-19 cells; assay type: cell-based, human; settings: treated overnight, then 4 days in normal media
# Description: Upon initial seeding of potential 5HT2A KD cells there was a readily apparent alteration of normal ARPE cell morphology. Cells appeared flattened, extended, highly attached and enlarged. Each cell line isolate maintained this enlarged and flattened cell morphology as shown to the right and quantified below. […] This markedly altered morphology is present in cells that have begun to undergo changes related to aging, including evolving a senescent or pre-senescent phenotype. Therefore, FACS analysis of 5HT2A KD cells was performed comparing the cell size of Forward Scatter to ARPE-19 cells, treated overnight with Etoposide, an inhibitor of topoisomerase, and a known inducer of cell senescence, and then cultured for 4 days in normal media in the absence of etoposide. […] Further an increase in particles of “cell degranulation” sizing was also observed in all conditions compared to ARPE-19 WT controls.
smiles,measurement,setting,value
"COc1cc(CC(C)C)c(OC)cc1CCN [2C-iBu, 2,5-Dimethoxy-4-isobutylphenethylamine]",ATP levels relative to Mock treated ARPE-19 cells,ARPE-19 cells [1]; 10 fold dilutions 100 nM to 0.1 nM,Increase Mitochondrial Function And ATP Production
same,production of ATP,"ARPE-19 cells [1]; ARPE WT cells, 24 h after administration",enhanced production of ATP
same,AMP kinase activation,AMP kinase,activation of AMP kinase
same,blue light induced mitochondrial fragmentation/damage,ARPE cells,Inhibit Blue Light and Oxidative Stress Induced Mitochondrial Fragmentation/Damage
same,hyperglycemia induced phosphorylated MLC levels,"[2]; ARPE-19, DMEM High glucose 7% FCS overnight, 10 nM, western blot",suppressed hyperglycemia induced phosphorylated MLC levels
same,phosphorylation of MLC,"[2]; WT ARPE-19 in media with hyperglycemic glucose (17.5 mM), low dose, not high doses",inhibited
same,oxidative stress-induced cell death,A549 cells,protected cells from oxidative stress-induced cell death
"COc1cccc([C@H](O)C2CCN(CCc3ccc(F)cc3)CC2)c1OC [M100,907, reference compound]",cellular senescence (SA-β-Gal positive cells),ARPE-19 cells [3],Increases Proportions of Cellular Senescence
same,serotonin-mediated enhanced replication,ARPE-19 cells [4]; antagonist at 10 nM during serotonin induction,abrogated serotonin-mediated enhanced replication
COc1cc(C(F)(F)F)c(OC)cc1C[C@@H](C)N [R-DOTFM],concentration at which disease is exacerbated,ARPE-19 cells [5],≥ 10 nM
same,hyperglycemia induced cellular senescence relative to hyperglycemic control,"ARPE-19 cells [5]; 1 uM to 0.1 nM, HPLM 30 mM glucose, 72 hours",enhances rather than inhibits Aging-Associated Disease Processes and Cellular Senescence
"NCCc1c[nH]c2ccc(O)cc12 [Serotonin, 5-hydroxytryptamine]",cellular replication / proliferation,ARPE-19 cells [4],Enhances Cellular Health and Replication
same,cellular replication / proliferation,ARPE-19 cells [4]; listed as 5-HT,increase cellular replication; also recorded: increase ARPE-19 Proliferation
same,cellular replication / proliferation,ARPE-19 cells [4]; listed as serotonin,enhance cellular replication patterns; also recorded: enhance replication of cells
COc1cc([C@@H]2c3cc4c(cc3[C@@H](O[C@@H]3O[C@@H]5CO[C@@H](C)O[C@H]5[C@H](O)[C@H]3O)[C@H]3COC(=O)[C@H]23)OCO4)cc(OC)c1O [etoposide],cell size (forward scatter),ARPE-19 cells [6],increased cell size
